# Measured values: the supplement of paper PMC11061612
# Assays:
# Assay in all cases: combination Emax (second highest fraction inhibited in the dose matrix, 72 h); higher = more inhibition; extreme values may be limits of the assay
# [1] = tested on: CAL-54 (Kidney Carcinoma)
# Procedure, shortened: (§1)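 Bliss excess equals the observed combination effect minus the expected value EA + EB − EA·EB, where EA and EB are the effects of each agent alone. Combination Emax is the second-highest inhibition within the matrix. Inhibition was scaled from CellTiter-Glo 2.0 luminescence, with 0 set by vehicle wells and 1 by blank wells, after 72 hours of two-drug dosing of cells plated in 1536-well plates.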
# [2] = tested on: CAPAN-1 (Pancreatic Carcinoma)
# Procedure, shortened: as §1
# [3] = tested on: EN (Endometrial Carcinoma)
# Procedure, shortened: as §1
# [4] = tested on: HARA (Squamous Cell Lung Carcinoma)
# Procedure, shortened: as §1
# [5] = tested on: HDLM-2 (Hodgkin's Lymphoma)
# Procedure, shortened: as §1
# [6] = tested on: HMV-II (Melanoma)
# Procedure, shortened: as §1
# [7] = tested on: HO-1-u-1 (Oral Cavity Carcinoma)
# Procedure, shortened: as §1
# [8] = tested on: K5 (Thyroid Gland Carcinoma)
# Procedure, shortened: as §1
# [9] = tested on: LU-139 (Small Cell Lung Carcinoma)
# Procedure, shortened: as §1
# [10] = tested on: LoVo (Colorectal Carcinoma)
# Procedure, shortened: as §1
# [11] = tested on: MDA-MB-468 (Breast Carcinoma)
# Procedure, shortened: as §1
# [12] = tested on: Mewo (Melanoma)
# Procedure, shortened: as §1
# [13] = tested on: NB14 (Neuroblastoma)
# Procedure, shortened: as §1
# [14] = tested on: NCI-H2461 (Mesothelioma)
# Procedure, shortened: as §1
# [15] = tested on: NCI-H2795 (Mesothelioma)
# Procedure, shortened: as §1
# [16] = tested on: NCI-H69 (Small Cell Lung Carcinoma)
# Procedure, shortened: as §1
# [17] = tested on: PCI-30 (Head and Neck Carcinoma)
# Procedure, shortened: as §1
# [18] = tested on: SH-4 (Melanoma)
# Procedure, shortened: as §1
# [19] = tested on: SU-DHL-6 (B-Cell Non-Hodgkin's Lymphoma)
# Procedure, shortened: as §1
# [20] = tested on: SW1116 (Colorectal Carcinoma)
# Procedure, shortened: as §1
SMILES,combination Emax [1],combination Emax [2],combination Emax [3],combination Emax [4],combination Emax [5],combination Emax [6],combination Emax [7],combination Emax [8],combination Emax [9],combination Emax [10],combination Emax [11],combination Emax [12],combination Emax [13],combination Emax [14],combination Emax [15],combination Emax [16],combination Emax [17],combination Emax [18],combination Emax [19],combination Emax [20]
"CC1(C)CCC(CN2CCN(c3ccc(C(=O)NS(=O)(=O)c4ccc(NCC5CCOCC5)c([N+](=O)[O-])c4)c(Oc4cnc5[nH]ccc5c4)c3)CC2)=C(c2ccc(Cl)cc2)C1 [Venetoclax] + CS(=O)(=O)CCNCc1ccc(-c2ccc3ncnc(Nc4ccc(OCc5cccc(F)c5)c(Cl)c4)c3c2)o1 [Lapatinib] (first compound max 1 µM, 7x7, partner max 10 µM)",0.52,0.261,0.288,0.584,0.629,0.519,0.673,0.187,0.19,0.486,0.635,0.176,0.948,0.268,0.341,0.724,0.167,0.0973,0.975,0.288
"Cc1cc2ncnn2cc1Nc1ncc2c(n1)n(C1CCOCC1)c(=O)n2C [AZD7648] + COc1cc([C@@H]2c3cc4c(cc3[C@@H](O[C@@H]3O[C@@H]5CO[C@@H](C)O[C@H]5[C@H](O)[C@H]3O)[C@H]3COC(=O)[C@H]23)OCO4)cc(OC)c1O [Etoposide] (first compound max 10 µM, 7x7, partner max 10 µM)",0.731,0.492,0.481,0.627,0.715,0.655,0.866,0.64,0.875,0.704,0.657,0.71,0.912,0.553,0.686,0.67,0.553,0.492,0.991,0.192
"O=C(c1cc(Cc2n[nH]c(=O)c3ccccc23)ccc1F)N1CCN(C(=O)C2CC2)CC1 [Olaparib] + COc1nnc2ccc(N3CCC(c4ccc(OCCN5CCN(C)C(=O)[C@H]5C)cc4)CC3)nn12 [AZD5153] (first compound max 10 µM, 7x7, partner max 1 µM)",0.737,0.418,0.347,0.582,0.356,0.474,0.454,0.611,0.896,0.436,0.503,0.417,0.574,0.42,0.651,0.488,0.251,0.514,0.917,0.332
"N#Cc1cnc(Nc2cc(NC[C@H]3CNCCO3)c(C(F)(F)F)cn2)cn1 [SRA737] + O=c1[nH]cc(F)c(=O)[nH]1 [5-Fluorouracil] (first compound max 10 µM, 7x7, partner max 20 µM)",0.565,0.349,0.483,0.89,0.645,0.303,0.667,0.451,0.356,0.652,0.344,0.38,0.97,0.526,0.759,0.152,0.226,0.383,0.748,0.193
"Cc1c2c(nn1C)CSCc1cc(n(C)n1)CSc1cc(c3ccccc3c1)OCCCc1c(C(=O)O)n(C)c3c-2c(Cl)ccc13 [AZD5991] + Nc1ccn([C@@H]2O[C@H](CO)[C@@H](O)C2(F)F)c(=O)n1 [Gemcitabine] (first compound max 1 µM, 7x7, partner max 0.3 µM)",0.724,0.608,0.602,0.81,0.967,0.595,0.378,0.544,0.855,0.713,0.707,0.465,0.853,0.553,0.869,0.457,0.559,0.495,1,0.203
"Cc1c2c(nn1C)CSCc1cc(n(C)n1)CSc1cc(c3ccccc3c1)OCCCc1c(C(=O)O)n(C)c3c-2c(Cl)ccc13 [AZD5991] + CS(=O)(=O)CCNCc1ccc(-c2ccc3ncnc(Nc4ccc(OCc5cccc(F)c5)c(Cl)c4)c3c2)o1 [Lapatinib] (first compound max 1 µM, 7x7, partner max 10 µM)",0.529,0.261,0.519,0.786,0.961,0.64,0.713,0.237,0.201,0.491,0.851,0.481,0.936,0.332,0.877,0.443,0.257,0.197,1,0.395
